The source of these data is patent publication US20230312504A1, “QUINOLINE COMPOUNDS” (Guangzhou Baiyunshan Pharmaceutical Holdings Co., Ltd. …, priority 2020, published 2023).

pIC50: −log10 of the molar value. Some results are limits rather than exact numbers.

For data set [1], the target named is human wild-type RET kinase (Homo sapiens (Human), UniProt P07949). Put plainly: 33P-labeled kinase activity assay, wild-type RET. The class given is biochemical. The settings on record: 33P-ATP at Km concentration; read-out: RET(WT) IC50. As for the experimental part:
(§1) The inhibitory activity of the test compounds against human wild-type and V804M mutant RET kinase was evaluated by measuring IC50 values in a ^33P-labeled kinase activity assay (Reaction Biology Corp).
(§2) Buffer conditions: 20 mM hydroxyethyl-piperazine-ethanesulfonic acid (Hepes) (pH 7.5), 10 mM MgCl2, 1 mM ethylene glycol-bis(aminoethyl ether)-tetraacetic acid (EGTA), 0.02% polyoxyethylene lauryl ether (Brij35), 0.02 mg/mL BSA, 0.1 mM Na3VO4, 2 mM dithiothreitol (DTT), and 1% DMSO.
(§3) Compound handling: testing compounds were dissolved in 100% DMSO to specific concentration. Serial dilution can be conducted using Integra Viaflo Assist in DMSO.
(§4) Procedures: the substrate was dissolved in freshly prepared Reaction Buffer, the test kinase was added into the substrate solution and gently mixed. Compounds in DMSO were added into the above kinase reaction mixture by Acoustic technology (Echo550) and incubate for 20 minutes at room temperature. The concentrations of the compounds in the reaction solutions were 3 μM, 1 μM, 0.333 μM, 0.111 μM, 0.0370 μM, 0.0123 μM, 4.12 nM, 1.37 nM, 0.457 nM and 0.152 nM. […] The reaction was conducted for 120 minutes at room temperature, and radioactivity was detected by filter-binding method. Kinase activity data can be expressed as the percent remaining kinase activity in test samples compared to vehicle (DMSO only) reactions. […]

Data set [2] has as its target human V804M mutant RET kinase (Homo sapiens (Human), UniProt P07949, V804M). The data set is described as follows: 33P-labeled kinase activity assay, V804M mutant RET. The class given is biochemical. The settings on record: 33P-ATP at Km concentration. How it is done:
as §1, §2, §3, §4

Data set [3] in a line: Microsome metabolic stability, human. It counts as in vitro ADME. The settings on record: human liver microsomes, 1 μM compound, 0.5 mg/mL; read-out: MMS CLint(liver)-H. As for the experimental part:
(§5) To evaluate the Phase I metabolic stability of the test compound in animal and human liver microsomes.
(§6) 10 μL of the test compound working solution and 80 μL of microsome working solution (0.625 mg/mL liver microsome protein) were added to the reaction plate and NCF60 plate, respectively, while only microsome working solution was added to the Blank60 plate, then, the above incubation plates were placed in a 37° C. water bath for pre-incubation for approximately 10 minutes.
(§7) After the pre-incubation, 10 μL of a NADPH regeneration system working solution was added into each sample well of all the plates except the NCF60 plate and TO plate to start the reaction, and 10 μL of potassium phosphate buffer was added to each well of the NCF60 plate. The final reaction concentrations of the test sample or control sample were 1 μM, the concentration of the liver microsomes was 0.5 mg/mL.
(§8) After incubation for an appropriate time, 300 μL of a stop solution (acetonitrile solution containing 200 ng/mL tolbutamide) was added to each sample well to stop the reaction; stop solution and then NADPH regeneration system working solution were added to the TO plate in sequence.
(§9) All the sample plates were shaken and centrifuged at 3220 rpm for 20 min, and then 100 μL of supernatant was taken from each well and diluted with 300 μL of pure water for LC-MS/MS analysis. […]
Background: Microsomes from liver hold many membrane-bound enzymes, among them those of drug oxidation.

The nature of data set [4]: Microsome metabolic stability, cynomolgus monkey. It counts as in vitro ADME. To be noted: cynomolgus monkey liver microsomes, 1 μM compound, 0.5 mg/mL; read-out: MMS CLint(liver)-C. As for the experimental part:
as §5, §6, §7, §8, §9

Data set [5] in a line: Microsome metabolic stability, Beagle. The class given is in vitro ADME. To be noted: dog; Beagle liver microsomes, 1 μM compound, 0.5 mg/mL; read-out: MMS CLint(liver)-D. As for the experimental part: as §5, §6, §7, §8, §9
Data set [6] is described as follows: Microsome metabolic stability, rat. The class given is in vitro ADME. The settings on record: rat liver microsomes, 1 μM compound, 0.5 mg/mL; read-out: MMS CLint(liver)-R. As for the experimental part:
as §5, §6, §7, §8, §9

Data set [7] in a line: Microsome metabolic stability, mice. The settings on record: mouse; mice liver microsomes, 1 μM compound, 0.5 mg/mL; read-out: MMS CLint(liver)-M. It counts as in vitro ADME. How it is done:
as §5, §6, §7, §8, §9

For a further data set, the target named is CYP1A2 (Homo sapiens (Human), UniProt P05177). Put plainly: CYP inhibition in human liver microsomes, CYP1A2. The class given is in vitro ADME. To be noted: 0.05-50 μM. As for the experimental part: (§10) Mixed probe substrate of CYP isozymes were used to evaluate the inhibition of compounds of the present disclosure to human liver microsomal cytochrome P450 isoenzymes (CYP1A2, CYP2C9, CYP2C19, CYP2D6, and CYP3A4).
CYP1A2, sequence (P05177 whole entry): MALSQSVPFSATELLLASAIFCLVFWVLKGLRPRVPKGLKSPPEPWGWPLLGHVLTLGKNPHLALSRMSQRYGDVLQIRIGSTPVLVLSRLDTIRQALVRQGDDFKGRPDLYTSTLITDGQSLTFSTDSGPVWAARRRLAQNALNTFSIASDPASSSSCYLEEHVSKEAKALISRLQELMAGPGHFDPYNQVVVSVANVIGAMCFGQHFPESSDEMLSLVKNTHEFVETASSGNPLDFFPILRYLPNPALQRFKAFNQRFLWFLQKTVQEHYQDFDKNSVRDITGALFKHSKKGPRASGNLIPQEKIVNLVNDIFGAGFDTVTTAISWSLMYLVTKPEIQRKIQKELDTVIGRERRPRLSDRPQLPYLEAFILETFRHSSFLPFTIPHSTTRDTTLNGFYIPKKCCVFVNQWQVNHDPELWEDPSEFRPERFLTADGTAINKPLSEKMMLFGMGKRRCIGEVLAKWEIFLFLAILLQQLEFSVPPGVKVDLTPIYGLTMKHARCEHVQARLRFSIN
(§11) The testing compound was dissolved in DMSO to prepare a 10 mM stock solution. 178 μL of the mixture solution of human liver microsomes and substrate was added into non-inhibitor control (NIC) wells and test compound sample wells of the reaction plate, and the reaction plate was placed on ice. 2 μL of blank solvent and test compound working solution was taken from the dilution plate, respectively, and then added into the reaction plate (final concentration: 0.05-50 μM). The reaction plate was preheated in a 37±0.2° C. water bath for 10 minutes. 20 μL of cofactor solution was added into the reaction plate using a liquid handling workstation to initiate the reaction.
(§12) After 10 minutes, 400 μL of stop solution was added to the reaction plate to stop the reaction, and the reaction plate was placed on ice for 5 minutes. […] The peak areas of the substrate and product were detected by liquid chromatography tandem mass spectrometry (LC/MS/MS). […]
(§13) A nonlinear regression analysis of mean percentage activity of the test compound against concentration was performed using SigmaPlot (V.11). The IC50 value was calculated using a three- or four-parameter inverse logarithmic equation. […]

The next data set addresses CYP2C9 (Homo sapiens (Human), UniProt P11712). Put plainly: CYP inhibition in human liver microsomes, CYP2C9. The class given is in vitro ADME. To be noted: 0.05-50 μM. As for the experimental part:
as §10, §11, §12, §13

For another data set, the target named is CYP2C19 (Homo sapiens (Human), UniProt P33261). Put plainly: CYP inhibition in human liver microsomes, CYP2C19. To be noted: 0.05-50 μM. It counts as in vitro ADME. As for the experimental part: as §10, §11, §12, §13
CYP2C19, sequence (P33261 whole entry): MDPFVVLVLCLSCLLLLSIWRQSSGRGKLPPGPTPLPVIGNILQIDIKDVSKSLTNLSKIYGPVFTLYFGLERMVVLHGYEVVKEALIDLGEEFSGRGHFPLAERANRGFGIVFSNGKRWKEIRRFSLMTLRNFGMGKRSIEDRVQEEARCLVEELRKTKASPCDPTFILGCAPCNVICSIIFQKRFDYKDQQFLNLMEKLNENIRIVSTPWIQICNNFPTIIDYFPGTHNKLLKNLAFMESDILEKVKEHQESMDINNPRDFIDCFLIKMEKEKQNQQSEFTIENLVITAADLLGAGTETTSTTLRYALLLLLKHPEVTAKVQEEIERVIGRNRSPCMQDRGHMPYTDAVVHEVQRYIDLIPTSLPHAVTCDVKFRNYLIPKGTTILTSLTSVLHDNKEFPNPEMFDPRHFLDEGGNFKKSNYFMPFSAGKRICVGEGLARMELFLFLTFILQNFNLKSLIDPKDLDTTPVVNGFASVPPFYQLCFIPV
The target of another data set is CYP2D6 (Homo sapiens (Human), UniProt P10635). Put plainly: CYP inhibition in human liver microsomes, CYP2D6. It counts as in vitro ADME. To be noted: 0.05-50 μM. How it is done: as §10, §11, §12, §13
CYP2D6, sequence (P10635 whole entry): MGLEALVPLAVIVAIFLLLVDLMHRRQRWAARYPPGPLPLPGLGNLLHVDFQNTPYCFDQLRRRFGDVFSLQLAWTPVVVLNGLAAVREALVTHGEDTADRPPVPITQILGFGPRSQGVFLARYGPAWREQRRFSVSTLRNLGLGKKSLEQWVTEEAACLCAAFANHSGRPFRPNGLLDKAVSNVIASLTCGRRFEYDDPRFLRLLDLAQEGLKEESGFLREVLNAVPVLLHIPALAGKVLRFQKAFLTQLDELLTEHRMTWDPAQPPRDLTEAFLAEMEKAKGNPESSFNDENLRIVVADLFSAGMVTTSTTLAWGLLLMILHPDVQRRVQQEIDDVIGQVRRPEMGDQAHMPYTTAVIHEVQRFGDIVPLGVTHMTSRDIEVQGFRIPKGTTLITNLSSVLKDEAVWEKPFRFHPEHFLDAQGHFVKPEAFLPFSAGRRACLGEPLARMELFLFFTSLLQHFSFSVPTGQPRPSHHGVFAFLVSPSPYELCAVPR
The target of a further data set is CYP3A4 (Homo sapiens (Human), UniProt P08684). The data set is described as follows: CYP inhibition in human liver microsomes, CYP3A4. It counts as in vitro ADME. The settings on record: 0.05-50 μM. As for the experimental part: as §10, §11, §12, §13
CYP3A4, sequence (P08684 whole entry): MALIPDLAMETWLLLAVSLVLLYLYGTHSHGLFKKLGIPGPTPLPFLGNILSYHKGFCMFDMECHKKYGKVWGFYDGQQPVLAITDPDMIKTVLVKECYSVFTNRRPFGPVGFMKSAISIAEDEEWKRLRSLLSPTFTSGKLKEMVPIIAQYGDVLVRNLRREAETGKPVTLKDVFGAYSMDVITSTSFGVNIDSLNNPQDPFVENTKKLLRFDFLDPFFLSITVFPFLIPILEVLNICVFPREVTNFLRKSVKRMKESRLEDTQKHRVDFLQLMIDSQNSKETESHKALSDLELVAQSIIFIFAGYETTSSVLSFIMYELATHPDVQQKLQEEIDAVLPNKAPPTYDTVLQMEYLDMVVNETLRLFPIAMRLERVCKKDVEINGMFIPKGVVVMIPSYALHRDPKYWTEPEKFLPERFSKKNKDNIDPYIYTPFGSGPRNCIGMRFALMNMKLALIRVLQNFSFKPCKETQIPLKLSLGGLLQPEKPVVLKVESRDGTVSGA
Data set [8] in a line: Pharmacokinetics study of mice. It counts as in vivo. To be noted: mouse, male CD-1 mice, plasma. The source says:
The purpose of this experiment was to study the pharmacokinetics of the test compound in the plasma of male CD-1 mice after intravenous injection and oral administration.
The animals were randomly divided into two groups with 2 males in each group. The compounds were formulated into prescribed preparations. Intravenous formulations were formulated with 5% DMS 0/95% (6% hydroxypropyl-β-cyclodextrin) to give a clear solution, and oral preparations were formulated with 0.1% Tween80/0.5% HPMC aqueous solution to give a homogeneous suspension.
Whole blood samples were collected from the saphenous vein of the animals 5 minutes, 15 minutes, 30 minutes, 1 hour, 2 hours, 4 hours, 8 hours, 12 hours, and 24 hours after administration. The whole blood sample was added to the centrifuge tube containing anticoagulant, and centrifuged at 3200 g for 10 minutes at 4° C. The supernatant of plasma was taken, frozen quickly on dry ice, and then stored in a −70±10° C. refrigerator until LC-MS/MS analysis.
WinNonlin™ Version 6.3.0 (Pharsight, Mountain View, Calif.) pharmacokinetic software was used to process the plasma drug concentration data of the compounds with a non-compartmental model. The peak concentration (Cmax), peak time (Tmax) and quantifiable end time were obtained directly from the blood drug concentration-time profile.
The following pharmacokinetic parameters were calculated using the log-linear trapezoid method: Plasma clearance rate (CL), volume of distribution (Vd), elimination phase half-life (T1/2), average residence time of drug in the body from 0 to the end time point (MRT0-last), average residence time of the drug in the body from 0 to infinite time (MRT0-inf), area under the time-plasma concentration curve from 0 to the end time point (AUC0_last), area under the time-plasma concentration curve from 0 to infinite time (AUC0-inf) and bioavailability (F).

The mark [9] stands for this setting: 0.5 mg/kg, 0.5 mpk intravenous injection.
Where [10] appears, read: 2.5 mg/kg, 2.5 mpk oral administration.

human wild-type RET kinase, sequence (P07949 29-1114): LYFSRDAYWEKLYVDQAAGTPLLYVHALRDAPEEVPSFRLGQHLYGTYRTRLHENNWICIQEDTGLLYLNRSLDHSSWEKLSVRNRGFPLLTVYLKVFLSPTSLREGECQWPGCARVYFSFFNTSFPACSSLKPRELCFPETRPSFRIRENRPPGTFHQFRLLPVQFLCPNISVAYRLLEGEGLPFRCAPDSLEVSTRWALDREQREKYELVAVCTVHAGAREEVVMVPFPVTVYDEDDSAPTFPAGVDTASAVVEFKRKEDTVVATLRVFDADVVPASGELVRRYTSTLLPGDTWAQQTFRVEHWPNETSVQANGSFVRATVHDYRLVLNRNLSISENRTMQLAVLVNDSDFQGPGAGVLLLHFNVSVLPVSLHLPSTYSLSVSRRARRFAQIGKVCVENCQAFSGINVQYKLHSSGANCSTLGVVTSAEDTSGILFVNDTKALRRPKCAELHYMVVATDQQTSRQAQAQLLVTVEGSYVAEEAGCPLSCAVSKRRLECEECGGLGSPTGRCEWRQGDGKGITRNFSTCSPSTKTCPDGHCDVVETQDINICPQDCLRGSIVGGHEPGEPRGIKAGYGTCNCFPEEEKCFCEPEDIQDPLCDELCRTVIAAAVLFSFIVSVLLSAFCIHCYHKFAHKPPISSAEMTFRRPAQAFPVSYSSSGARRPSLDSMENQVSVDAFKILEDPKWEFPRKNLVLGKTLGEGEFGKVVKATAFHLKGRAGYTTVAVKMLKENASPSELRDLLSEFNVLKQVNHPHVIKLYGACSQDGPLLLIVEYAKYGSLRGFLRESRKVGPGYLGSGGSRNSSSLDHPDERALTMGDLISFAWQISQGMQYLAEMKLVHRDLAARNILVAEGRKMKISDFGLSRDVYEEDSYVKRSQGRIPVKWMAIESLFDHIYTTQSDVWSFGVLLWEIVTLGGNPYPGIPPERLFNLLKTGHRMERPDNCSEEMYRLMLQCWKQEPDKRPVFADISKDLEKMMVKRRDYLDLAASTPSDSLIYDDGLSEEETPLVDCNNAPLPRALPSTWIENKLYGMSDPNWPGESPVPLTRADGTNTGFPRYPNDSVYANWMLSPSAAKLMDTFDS
human V804M mutant RET kinase, sequence (P07949 29-1114 V804M): as the sequence (P07949 29-1114) above, with V776M counted along it
CYP2C9, sequence (P11712 whole entry): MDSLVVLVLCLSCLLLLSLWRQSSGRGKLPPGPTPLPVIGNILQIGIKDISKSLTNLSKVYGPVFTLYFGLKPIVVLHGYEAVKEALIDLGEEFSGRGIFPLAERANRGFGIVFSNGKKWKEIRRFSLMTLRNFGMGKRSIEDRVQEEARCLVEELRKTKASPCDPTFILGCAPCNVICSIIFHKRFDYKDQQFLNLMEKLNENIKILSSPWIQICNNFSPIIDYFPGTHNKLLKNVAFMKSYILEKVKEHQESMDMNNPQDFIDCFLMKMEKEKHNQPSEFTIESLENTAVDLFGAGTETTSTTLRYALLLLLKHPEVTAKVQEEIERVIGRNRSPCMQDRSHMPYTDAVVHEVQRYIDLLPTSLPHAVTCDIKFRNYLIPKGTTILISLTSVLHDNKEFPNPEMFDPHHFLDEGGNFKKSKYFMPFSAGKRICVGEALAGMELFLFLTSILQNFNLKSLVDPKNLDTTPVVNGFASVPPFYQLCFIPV

Regarding `CCN1CCN(Cc2cc(F)c(NC(=O)Cc3ccc(-c4cnc5cc(OC)c(OC)cc5c4)nc3)cc2C(F)(F)F)CC1` [Compound 1], the pIC50 is 9.30 in [1]; 9.05 in [2]; < 4.30 against CYP1A2; 4.90 on CYP2C9; 4.77 at CYP2C19; 4.73 on CYP2D6. The pIC50 on CYP3A4 was < 4.30. Besides, the CLint scaled at 1 μM in [3] was 20.7 mL/min/kg; in data set [4] it was 127 mL/min/kg; in data set [5], 22.5 mL/min/kg; in [6] it was < 17.3 mL/min/kg; in data set [7], 88.5 mL/min/kg. Also, the AUC(0-inf) in data set [8] (setting [9]) is 5.19 µM·h; in data set [8] (setting [10]), 12.5 µM·h. The compound also yielded a C0 in [8] (setting [9]) of 1300 nM. Further, the clearance in data set [8] (setting [9]) turned out to be 2.68 mL/min/kg. In addition, the half-life in [8] (setting [9]) is 6.93 h; in [8] (setting [10]), 5.16 h. Moreover, in data set [8] (0.5 mg/kg, 0.5 mpk intravenous injection, read-out: Vdss), the Vd was determined as 1.52 L/kg. For the same compound, the Cmax in data set [8] (setting [10]) amounted to 958 nM. In addition, the Tmax in data set [8] (setting [10]) was found to be 8 h.

Broadly, the pIC50 is −log10 of the IC50, conventionally taken in molar units. Usually AUC(0-inf) stands for total exposure, with the tail of the curve extrapolated. A word on the clearance: it is the rate of elimination divided by the concentration. The half-life is how long it takes for the measured level to halve. In general, Cmax refers to the maximum level reached in the sampled fluid or tissue. In general, Tmax refers to the time at which the peak concentration occurs.
